{
  "source": "BindingDB's records for patent US9617239",
  "about": "(North Carolina Central University, 2017)",
  "molecular_target": "Beta-glucuronidase (Escherichia coli (strain K12), UniProt P05804)",
  "sequence (P05804 whole entry)": "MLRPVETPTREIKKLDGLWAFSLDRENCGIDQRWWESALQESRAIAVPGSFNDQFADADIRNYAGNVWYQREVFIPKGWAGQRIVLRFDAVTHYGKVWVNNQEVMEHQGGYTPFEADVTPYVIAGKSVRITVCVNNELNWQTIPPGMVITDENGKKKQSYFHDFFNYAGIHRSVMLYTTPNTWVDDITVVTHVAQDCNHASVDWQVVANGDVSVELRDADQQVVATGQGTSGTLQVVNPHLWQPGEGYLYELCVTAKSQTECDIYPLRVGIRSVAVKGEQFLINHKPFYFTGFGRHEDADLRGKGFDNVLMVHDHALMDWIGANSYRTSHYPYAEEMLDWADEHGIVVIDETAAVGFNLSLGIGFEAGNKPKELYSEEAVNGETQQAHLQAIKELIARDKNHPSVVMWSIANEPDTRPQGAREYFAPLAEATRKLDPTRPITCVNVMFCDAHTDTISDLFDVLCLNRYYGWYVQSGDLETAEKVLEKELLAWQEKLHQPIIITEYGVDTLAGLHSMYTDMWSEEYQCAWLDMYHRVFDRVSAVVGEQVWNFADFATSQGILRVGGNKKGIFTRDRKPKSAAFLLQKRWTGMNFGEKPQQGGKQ",
  "assay": "β-Glucuronidase Activity Assay",
  "protocol": "The β-glucuronidase assay was performed by the addition of 0.5 μl of compound (or DMSO) to the well of a black 384-well plate followed by the addition of 30 μl of diluted β-glucuronidase enzyme. […] After a 30 minute incubation at room temperature, the reaction was stopped by the addition of 20 ul 1 M Na2CO3. […] Minimum (min) controls were performed using reactions with no enzyme. Maximum (max) controls were performed using no compound. 1% DMSO was maintained in all reactions. Percent inhibition was calculated using RFU data by the following formula: [1−(assay readout-average of min)/(Average of Max-Average of Min)]×100",
  "data": [
    {"compound": "O=S(=O)(NCc1cccc2ccccc12)c1cc(Cl)c(Oc2ccc3c(c2)OCO3)s1", "note": "[US9617239, BRITE-355233]", "values": [
      {"measurement": "IC50", "result": 376, "unit": "µM"}
    ]}
  ]
}
